Values of other authors as cited in US20030175883A1, “DNA encoding a mammalian LPA receptor and uses thereof” (priority 1997, published 2003).

Experiments:
[1] = tested on: LPA binding sites in membranes from 3T3 cells; details: Thomson et al., 1994
[2] = target: LPA binding sites in membranes from rat brain; details: Thomson et al., 1994

Q: Which results are given for 1-acyl-glycerol-3-phosphate [LPA]?
A: Kd [1]: low nanomolar range; Kd [2]: low nanomolar range
